Test results: ChEMBL document CHEMBL3885861, “Open TG-GATES”

Species: Rattus norvegicus
Test: Open TG-GATES - Regimen: Daily Repeat
Assay type: toxicity, organism-based, Sprague-Dawley
Design: regimen Daily Repeat, gender Male, age 6 weeks
Conditions: in vivo, iv, route intravenous injection; for LIVER: tissue Liver; for A/G / ALP / ALT / AST / BUN / CRE / Ca / Cl / DBIL / GLC / IP / K / LDH / Na / PL / RALB / TBIL / TC / TG / TP / gamma-GTP: tissue Plasma; for APTT / Bas / Eos / Fbg / Hb / Ht / Lym / MCH / MCHC / MCV / Mono / Neu / PT / Plat / RBC / Ret / WBC: tissue Blood; for KIDNEY_L / KIDNEY_R / KIDNEY_TOTAL: tissue Kidney
[1] = 12 mg/kg, […], dose level Middle, time 14 day
[2] = 12 mg/kg, […], dose level Middle, time 28 day
[3] = 12 mg/kg, […], dose level Middle, time 7 day
[4] = 40 mg/kg, 72 h, dose level High, time 3 day
[5] = 40 mg/kg, […], dose level High, time 7 day

CN(C)c1ncnc2c1ncn2[C@@H]1O[C@H](CO)[C@@H](N)[C@H]1O [PUROMYCIN AMINONUCLEOSIDE]
LIVER [1]: 12.1 g
LIVER [2]: 12.8 g
A/G [3]: 1.1
ALP [3]: 1114.8 IU/L
ALT [3]: 36.8 IU/L
AST [3]: 66.4 IU/L
BUN [3]: 21.8 mg/dL
CRE [3]: 0.2 mg/dL
Ca [3]: 10.8 mg/dL
Cl [3]: 107.2 meq/L
DBIL [3]: 0.002 mg/dL
GLC [3]: 174.8 mg/dL
IP [3]: 7.5 mg/dL
K [3]: 4.2 meq/L
LDH [3]: 139.2 IU/L
Na [3]: 140.4 meq/L
PL [3]: 139.2 mg/dL
RALB [3]: 2.8 g/dL
TBIL [3]: 0.014 mg/dL
TC [3]: 76.2 mg/dL
TG [3]: 86.8 mg/dL
TP [3]: 5.3 g/dL
gamma-GTP [3]: 1.4 IU/L
A/G [1]: 0.5
ALP [1]: 267.4 IU/L
ALT [1]: 31.4 IU/L
AST [1]: 35.8 IU/L
BUN [1]: 77.4 mg/dL
CRE [1]: 0.5 mg/dL
Ca [1]: 9.3 mg/dL
Cl [1]: 107.6 meq/L
DBIL [1]: 0 mg/dL
GLC [1]: 180.8 mg/dL
IP [1]: 7.8 mg/dL
K [1]: 4 meq/L
LDH [1]: 214.2 IU/L
Na [1]: 143.4 meq/L
PL [1]: 533 mg/dL
RALB [1]: 1.3 g/dL
TBIL [1]: 0 mg/dL
TC [1]: 344.6 mg/dL
TG [1]: 454 mg/dL
TP [1]: 4.1 g/dL
gamma-GTP [1]: 1.8 IU/L
A/G [2]: 0.4
ALP [2]: 137.2 IU/L
ALT [2]: 61 IU/L
AST [2]: 53.2 IU/L
BUN [2]: 86.5 mg/dL
CRE [2]: 1.1 mg/dL
Ca [2]: 8.4 mg/dL
Cl [2]: 104 meq/L
DBIL [2]: 0 mg/dL
GLC [2]: 158.8 mg/dL
IP [2]: 8.8 mg/dL
K [2]: 3.9 meq/L
LDH [2]: 391.8 IU/L
Na [2]: 142.2 meq/L
PL [2]: 854.5 mg/dL
RALB [2]: 1.3 g/dL
TBIL [2]: 0.0025 mg/dL
TC [2]: 589 mg/dL
TG [2]: 351 mg/dL
TP [2]: 4.5 g/dL
gamma-GTP [2]: 2.8 IU/L
TERMINAL_BW [4]: 218.3 g
APTT [4]: 19.2 s
Bas [4]: 0%
Eos [4]: 0.6%
Fbg [4]: 356 mg/dL
Hb [4]: 13.3 g/dL
Ht [4]: 38.2%
Lym [4]: 88.4%
MCH [4]: 20.4 pg
MCHC [4]: 34.7%
MCV [4]: 58.9 fL
Mono [4]: 2.4%
Neu [4]: 7.4%
PT [4]: 15.9 s
Plat [4]: 136.4 x10_4/uL
RBC [4]: 649 x10_4/ul
Ret [4]: 2%
WBC [4]: 82.2 x10_2/uL
KIDNEY_L [4]: 0.9 g
KIDNEY_R [4]: 1 g
KIDNEY_TOTAL [4]: 1.9 g
LIVER [4]: 9.6 g
A/G [4]: 1.2
ALP [4]: 892.8 IU/L
ALT [4]: 40.6 IU/L
AST [4]: 62 IU/L
BUN [4]: 24.2 mg/dL
CRE [4]: 0.2 mg/dL
Ca [4]: 12.3 mg/dL
Cl [4]: 102.8 meq/L
DBIL [4]: 0 mg/dL
GLC [4]: 179.6 mg/dL
IP [4]: 10.8 mg/dL
K [4]: 4.4 meq/L
LDH [4]: 154.8 IU/L
Na [4]: 141.2 meq/L
PL [4]: 153 mg/dL
RALB [4]: 3 g/dL
TBIL [4]: 0.022 mg/dL
TC [4]: 82 mg/dL
TG [4]: 64.4 mg/dL
TP [4]: 5.5 g/dL
gamma-GTP [4]: 1.8 IU/L
TERMINAL_BW [5]: 221.5 g
APTT [5]: 18 s
Bas [5]: 0%
Eos [5]: 0.6%
Fbg [5]: 621.8 mg/dL
Hb [5]: 13.7 g/dL
Ht [5]: 37.4%
Lym [5]: 84.8%
MCH [5]: 20.5 pg
MCHC [5]: 36.6%
MCV [5]: 56.2 fL
Mono [5]: 2.6%
Neu [5]: 10.8%
PT [5]: 13 s
Plat [5]: 106.2 x10_4/uL
RBC [5]: 665.2 x10_4/ul
Ret [5]: 0.8%
WBC [5]: 108.1 x10_2/uL
KIDNEY_L [5]: 1.2 g
KIDNEY_R [5]: 1.2 g
KIDNEY_TOTAL [5]: 2.4 g
LIVER [5]: 8.2 g
A/G [5]: 0.4
ALP [5]: 264.4 IU/L
ALT [5]: 65.8 IU/L
AST [5]: 78.6 IU/L
BUN [5]: 166.8 mg/dL
CRE [5]: 1 mg/dL
Ca [5]: 9.1 mg/dL
Cl [5]: 101 meq/L
DBIL [5]: 0 mg/dL
GLC [5]: 164.4 mg/dL
IP [5]: 12.6 mg/dL
K [5]: 5 meq/L
LDH [5]: 484 IU/L
Na [5]: 135.4 meq/L
PL [5]: 387.2 mg/dL
RALB [5]: 1.1 g/dL
TBIL [5]: 0.01 mg/dL
TC [5]: 266.6 mg/dL
TG [5]: 125.6 mg/dL
TP [5]: 3.5 g/dL
gamma-GTP [5]: 2.4 IU/L
